The target in one experiment is T1, NDR1 (Homo sapiens, UniProt Q15208).
T1 construct: purchased DiscoveRx
In words: KinomeScan. It counts as binding. To be noted: read-out: % Control.

In the next experiment the target is T2, D5 (Homo sapiens, UniProt P21918).
T2 construct: host or cells: Chem-1 cells expressing Gα15
In words: GPCR Profiler. The experiment is classed as cell-based.

For another experiment, the target named is T3, ASK1 (Homo sapiens, UniProt Q99683).
T3 construct: purchased DiscoveRx (Fremont, CA)
Kind of experiment: KinomeScan. To be noted: read-out: % Control. It counts as binding.

Another experiment concerns the target T4, YANK2 (Homo sapiens, UniProt Q9NY57).
T4 construct: purchased DiscoveRx
In words: KinomeScan. It counts as binding. To be noted: read-out: % Control.

Experiment [1] addresses T5, ABL1(M351T)-phosphorylated (Homo sapiens, UniProt P00519, M351T).
T5 construct: purchased DiscoveRx
Kind of experiment: KinomeScan. The experiment is classed as binding. To be noted: read-out: % Control.

Another experiment addresses T6, HIPK4 (Homo sapiens, UniProt Q8NE63).
T6 construct: purchased DiscoveRx (Fremont, CA)
Kind of experiment: KinomeScan. It counts as binding. To be noted: read-out: % Control.

A further experiment addresses T7, TESK1 (Homo sapiens, UniProt Q15569).
T7 construct: purchased DiscoveRx (Fremont, CA)
Kind of experiment: KinomeScan. It counts as binding. To be noted: read-out: % Control.

A further experiment addresses T8, EPHA1 (Homo sapiens, UniProt P21709).
T8 construct: purchased DiscoveRx (Fremont, CA)
Kind of experiment: KinomeScan. It counts as binding. The conditions noted are these: read-out: % Control.

The target of a further experiment is T9, EGFR(L861Q) (Homo sapiens, UniProt P00533, L861Q).
T9 construct: purchased DiscoveRx (Fremont, CA), KinomeScan service
In words: KinomeScan. It counts as binding. To be noted: read-out: % Control.

Another experiment addresses T10, BMPR1B (Homo sapiens, UniProt O00238).
T10 construct: purchased DiscoveRx (Fremont, CA)
Kind of experiment: KinomeScan. To be noted: read-out: % Control. It counts as binding.

The target of experiment [2] is T11, RPS6KA4(Kin.Dom.2-C-terminal) (Homo sapiens, UniProt O75676).
T11 construct: RPS6KA4(Kin.Dom.2-C-terminal); purchased DiscoveRx (Fremont, CA)
In words: KinomeScan. The experiment is classed as binding. The conditions noted are these: read-out: % Control.

The target of another experiment is T12, PRKCH (Homo sapiens, UniProt P24723).
T12 construct: purchased DiscoveRx (Fremont, CA)
Kind of experiment: KinomeScan. The experiment is classed as binding. To be noted: read-out: % Control.

The target of a further experiment is CDKL5 (Homo sapiens, UniProt O76039). Kind of experiment: KinomeScan. The experiment is classed as binding. To be noted: read-out: % Control.
For a further experiment, the target named is CSNK1A1 (Homo sapiens, UniProt P48729). In words: KinomeScan. It counts as binding. To be noted: read-out: % Control.
The target in another experiment is T13, LPA5 (Homo sapiens, UniProt Q9H1C0).
T13 construct: host or cells: Chem-1 cells with promiscuous Gα15
T13 sequence (Q9H1C0 whole entry, species assumed): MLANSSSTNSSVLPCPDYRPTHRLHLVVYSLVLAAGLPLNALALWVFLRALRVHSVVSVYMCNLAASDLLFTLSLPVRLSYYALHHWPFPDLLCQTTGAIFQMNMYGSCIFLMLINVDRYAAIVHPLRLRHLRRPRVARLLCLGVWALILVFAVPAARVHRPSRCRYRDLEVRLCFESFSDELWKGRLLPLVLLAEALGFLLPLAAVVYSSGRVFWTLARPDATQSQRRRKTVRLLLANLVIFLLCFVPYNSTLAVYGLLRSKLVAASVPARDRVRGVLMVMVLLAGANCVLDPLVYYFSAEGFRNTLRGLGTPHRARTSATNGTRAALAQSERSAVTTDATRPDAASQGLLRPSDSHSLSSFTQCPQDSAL
Kind of experiment: GPCR Profiler. It counts as cell-based.

For experiment [3], the target named is T14, ABL1(H396P)-nonphosphorylated (Homo sapiens, UniProt P00519, H396P).
T14 construct: purchased DiscoveRx
Kind of experiment: KinomeScan. The experiment is classed as binding. To be noted: read-out: % Control.

Another experiment concerns the target T15, 5-HT1A (Homo sapiens, UniProt P08908).
T15 construct: host or cells: Chem-1 cells with promiscuous Gα15
Kind of experiment: GPCR Profiler. It counts as cell-based.

A further experiment concerns the target T16, EPHB4 (Homo sapiens, UniProt P54760).
T16 construct: purchased DiscoveRx (Fremont, CA)
Kind of experiment: KinomeScan. The conditions noted are these: read-out: % Control. The experiment is classed as binding.

Another experiment addresses T17, HUNK (Homo sapiens, UniProt P57058).
T17 construct: purchased DiscoveRx (Fremont, CA)
Kind of experiment: KinomeScan. To be noted: read-out: % Control. It counts as binding.

The target in a further experiment is T18, MKK7 (Homo sapiens, UniProt O14733).
T18 construct: purchased DiscoveRx
T18 sequence (O14733 whole entry): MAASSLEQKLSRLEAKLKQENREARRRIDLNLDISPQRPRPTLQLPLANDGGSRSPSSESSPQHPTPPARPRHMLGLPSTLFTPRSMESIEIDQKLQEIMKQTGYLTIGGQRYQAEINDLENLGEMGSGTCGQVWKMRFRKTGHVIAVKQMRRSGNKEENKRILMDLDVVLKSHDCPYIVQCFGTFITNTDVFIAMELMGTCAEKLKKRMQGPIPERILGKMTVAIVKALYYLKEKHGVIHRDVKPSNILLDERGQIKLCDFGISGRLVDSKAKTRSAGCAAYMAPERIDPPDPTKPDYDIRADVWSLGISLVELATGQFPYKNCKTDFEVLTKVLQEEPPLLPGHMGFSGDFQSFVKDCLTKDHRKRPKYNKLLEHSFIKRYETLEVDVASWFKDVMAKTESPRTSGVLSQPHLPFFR
In words: KinomeScan. It counts as binding. The conditions noted are these: read-out: % Control.

The next experiment deals with T19, ADCK3 (Homo sapiens, UniProt Q8NI60).
T19 construct: purchased DiscoveRx (Fremont, CA)
T19 sequence (Q8NI60 163-647): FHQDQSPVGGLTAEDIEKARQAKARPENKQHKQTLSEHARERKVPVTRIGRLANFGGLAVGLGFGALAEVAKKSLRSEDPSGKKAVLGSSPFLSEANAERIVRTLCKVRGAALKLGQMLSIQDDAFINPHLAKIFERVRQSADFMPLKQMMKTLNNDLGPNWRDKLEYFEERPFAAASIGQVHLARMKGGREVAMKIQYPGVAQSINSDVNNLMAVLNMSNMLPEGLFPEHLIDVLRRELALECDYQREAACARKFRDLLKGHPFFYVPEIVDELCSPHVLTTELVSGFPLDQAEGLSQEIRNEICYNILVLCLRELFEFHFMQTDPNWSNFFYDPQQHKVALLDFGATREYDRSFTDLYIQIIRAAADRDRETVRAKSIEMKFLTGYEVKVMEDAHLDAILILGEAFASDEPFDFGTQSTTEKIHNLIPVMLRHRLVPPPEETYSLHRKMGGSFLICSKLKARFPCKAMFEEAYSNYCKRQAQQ
Kind of experiment: KinomeScan. It counts as binding. To be noted: read-out: % Control.

A further experiment deals with CSK (Homo sapiens, UniProt P41240). In words: KinomeScan. The experiment is classed as binding. To be noted: read-out: % Control.
A further experiment deals with T20, NDR2 (Homo sapiens, UniProt Q9Y2H1).
T20 construct: purchased DiscoveRx
In words: KinomeScan. The experiment is classed as binding. The conditions noted are these: read-out: % Control.

The target of the next experiment is T21, STK36 (Homo sapiens, UniProt Q9NRP7).
T21 construct: purchased DiscoveRx (Fremont, CA)
T21 sequence (Q9NRP7 whole entry): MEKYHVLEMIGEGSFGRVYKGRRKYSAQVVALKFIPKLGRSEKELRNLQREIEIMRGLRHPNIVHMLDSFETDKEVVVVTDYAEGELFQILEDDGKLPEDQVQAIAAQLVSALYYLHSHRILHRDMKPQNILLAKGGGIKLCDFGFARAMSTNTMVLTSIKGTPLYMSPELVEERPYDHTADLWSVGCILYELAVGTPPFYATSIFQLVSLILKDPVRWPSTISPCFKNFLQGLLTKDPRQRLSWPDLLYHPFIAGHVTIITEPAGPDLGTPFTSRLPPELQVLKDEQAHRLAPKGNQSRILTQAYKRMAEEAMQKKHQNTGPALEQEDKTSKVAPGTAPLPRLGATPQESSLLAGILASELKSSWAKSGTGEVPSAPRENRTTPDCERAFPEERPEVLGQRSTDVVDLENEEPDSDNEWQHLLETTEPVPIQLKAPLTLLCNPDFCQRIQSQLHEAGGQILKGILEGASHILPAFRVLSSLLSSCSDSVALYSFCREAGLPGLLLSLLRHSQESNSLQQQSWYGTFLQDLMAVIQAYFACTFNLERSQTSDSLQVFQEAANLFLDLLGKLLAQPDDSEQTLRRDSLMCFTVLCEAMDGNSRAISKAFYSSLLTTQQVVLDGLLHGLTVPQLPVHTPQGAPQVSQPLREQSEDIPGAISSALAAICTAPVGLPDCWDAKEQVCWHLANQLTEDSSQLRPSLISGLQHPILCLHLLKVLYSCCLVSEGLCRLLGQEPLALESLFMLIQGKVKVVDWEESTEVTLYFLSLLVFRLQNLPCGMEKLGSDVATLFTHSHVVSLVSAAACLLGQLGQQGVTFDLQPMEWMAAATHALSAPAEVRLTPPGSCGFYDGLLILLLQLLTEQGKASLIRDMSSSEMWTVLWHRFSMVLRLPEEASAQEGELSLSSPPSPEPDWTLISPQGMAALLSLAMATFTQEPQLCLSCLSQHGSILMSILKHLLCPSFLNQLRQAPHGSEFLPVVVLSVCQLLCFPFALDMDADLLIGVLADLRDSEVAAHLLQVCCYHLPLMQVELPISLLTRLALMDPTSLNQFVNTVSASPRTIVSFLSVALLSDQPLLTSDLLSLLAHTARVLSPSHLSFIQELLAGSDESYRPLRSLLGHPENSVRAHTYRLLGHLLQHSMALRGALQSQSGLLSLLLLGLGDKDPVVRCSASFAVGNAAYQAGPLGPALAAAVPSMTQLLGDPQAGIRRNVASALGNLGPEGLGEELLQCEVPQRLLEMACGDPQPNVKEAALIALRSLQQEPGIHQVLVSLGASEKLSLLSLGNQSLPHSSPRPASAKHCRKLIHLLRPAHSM
In words: KinomeScan. To be noted: read-out: % Control. It counts as binding.

Experiment [4] has as its system 6 independent patient derived lines (PDX and Neurospheres). Kind of experiment: 2D monolayer viability (Cell Titer-Glo). It counts as cell-based. The conditions noted are these: Homo sapiens; range over the 6 lines; read-out: LC50 (the source's name). Here is the method:
GBM neurospheres and low passage PDX models were plated in 96-well plates at 10,000 cells per well in 50 μL of neural stem cell media. The next day, the cells were treated with OGM2 compounds at the indicated concentrations, in triplicates, by adding an equal volume of medium containing 2× the final concentration of compound. Following 72 hours incubation under standard cell culture conditions, relative cell number was assessed using Cell Titer-Glo Luminescent Cell Viability Assay (Promega™) following the manufacturer's instructions. Luminescence was determined using a Cytation 5 reader and Gen5 software package (BioTek™). For U87 and U138 cell lines, one thousand cells were plated per well in a standard 96-well plate and allowed to attach for 24 hours before exposure to concentrations of vehicle, OGM2, or TMZ. Cells were treated for 72 hours and then stained with DAPI. A 10× magnification lens on a LionheartFX (BioTek™) was used to image the wells, and images were stitched together with Gen5 software (BioTek™). Automated nuclei counting was also done using the Gen5 software. Results reported as percent response relative to DMSO control. IC50 (the concentration causing 50% inhibition) was determined by GraphPad Prism™ version 6.07.
See FIG. 56, FIG. 55E, and FIG. 55F. […] Similarly.

T2 sequence (P21918 whole entry): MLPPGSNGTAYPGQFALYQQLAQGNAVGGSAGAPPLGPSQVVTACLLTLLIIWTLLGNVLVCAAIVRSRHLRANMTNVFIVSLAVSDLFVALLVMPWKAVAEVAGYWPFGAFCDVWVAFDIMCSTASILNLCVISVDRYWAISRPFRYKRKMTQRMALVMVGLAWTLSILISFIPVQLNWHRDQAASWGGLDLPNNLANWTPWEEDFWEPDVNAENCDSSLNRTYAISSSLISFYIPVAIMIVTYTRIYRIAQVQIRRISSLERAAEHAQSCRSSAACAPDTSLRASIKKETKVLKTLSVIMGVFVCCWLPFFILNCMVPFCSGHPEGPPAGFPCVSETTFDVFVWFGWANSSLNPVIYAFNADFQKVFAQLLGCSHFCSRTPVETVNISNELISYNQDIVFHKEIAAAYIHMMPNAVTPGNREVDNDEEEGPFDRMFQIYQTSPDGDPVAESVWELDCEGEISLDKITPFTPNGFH
T15 sequence (P08908 whole entry): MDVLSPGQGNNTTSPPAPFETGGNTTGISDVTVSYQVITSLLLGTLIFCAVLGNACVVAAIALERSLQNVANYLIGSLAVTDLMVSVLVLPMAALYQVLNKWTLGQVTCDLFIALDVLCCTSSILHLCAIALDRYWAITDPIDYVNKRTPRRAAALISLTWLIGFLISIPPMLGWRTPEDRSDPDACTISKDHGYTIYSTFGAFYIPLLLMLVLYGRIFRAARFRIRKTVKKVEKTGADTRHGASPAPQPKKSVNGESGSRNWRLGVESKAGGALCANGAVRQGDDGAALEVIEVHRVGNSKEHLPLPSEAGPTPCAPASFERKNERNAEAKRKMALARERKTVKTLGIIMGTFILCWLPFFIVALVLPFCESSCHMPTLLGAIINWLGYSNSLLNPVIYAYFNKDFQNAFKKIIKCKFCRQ
T16 sequence (P54760 16-987): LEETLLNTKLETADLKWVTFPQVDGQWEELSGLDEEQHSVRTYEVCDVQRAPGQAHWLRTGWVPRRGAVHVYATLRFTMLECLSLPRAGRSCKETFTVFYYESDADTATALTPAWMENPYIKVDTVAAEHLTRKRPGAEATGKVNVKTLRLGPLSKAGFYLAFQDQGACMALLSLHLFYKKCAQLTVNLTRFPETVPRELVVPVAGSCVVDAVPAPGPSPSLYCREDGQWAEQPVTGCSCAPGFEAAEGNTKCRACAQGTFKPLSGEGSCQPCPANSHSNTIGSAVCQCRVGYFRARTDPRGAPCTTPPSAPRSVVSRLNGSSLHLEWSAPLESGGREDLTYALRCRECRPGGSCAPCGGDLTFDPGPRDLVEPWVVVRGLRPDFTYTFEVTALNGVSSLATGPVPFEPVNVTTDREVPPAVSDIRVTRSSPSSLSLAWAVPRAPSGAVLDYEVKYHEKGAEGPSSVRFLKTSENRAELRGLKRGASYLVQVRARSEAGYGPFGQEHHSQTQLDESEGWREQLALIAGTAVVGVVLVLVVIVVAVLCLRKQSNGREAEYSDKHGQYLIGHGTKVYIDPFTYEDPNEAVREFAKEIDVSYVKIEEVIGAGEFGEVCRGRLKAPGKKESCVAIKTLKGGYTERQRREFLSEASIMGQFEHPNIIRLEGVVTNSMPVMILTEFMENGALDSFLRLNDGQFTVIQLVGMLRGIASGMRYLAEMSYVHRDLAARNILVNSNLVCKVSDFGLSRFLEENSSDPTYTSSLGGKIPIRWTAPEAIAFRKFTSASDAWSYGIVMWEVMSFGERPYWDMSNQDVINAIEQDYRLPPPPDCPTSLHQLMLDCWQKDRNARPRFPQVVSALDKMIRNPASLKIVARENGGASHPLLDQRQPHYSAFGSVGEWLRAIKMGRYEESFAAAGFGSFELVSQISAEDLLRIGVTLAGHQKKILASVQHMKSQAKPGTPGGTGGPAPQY
T1 sequence (Q15208 whole entry): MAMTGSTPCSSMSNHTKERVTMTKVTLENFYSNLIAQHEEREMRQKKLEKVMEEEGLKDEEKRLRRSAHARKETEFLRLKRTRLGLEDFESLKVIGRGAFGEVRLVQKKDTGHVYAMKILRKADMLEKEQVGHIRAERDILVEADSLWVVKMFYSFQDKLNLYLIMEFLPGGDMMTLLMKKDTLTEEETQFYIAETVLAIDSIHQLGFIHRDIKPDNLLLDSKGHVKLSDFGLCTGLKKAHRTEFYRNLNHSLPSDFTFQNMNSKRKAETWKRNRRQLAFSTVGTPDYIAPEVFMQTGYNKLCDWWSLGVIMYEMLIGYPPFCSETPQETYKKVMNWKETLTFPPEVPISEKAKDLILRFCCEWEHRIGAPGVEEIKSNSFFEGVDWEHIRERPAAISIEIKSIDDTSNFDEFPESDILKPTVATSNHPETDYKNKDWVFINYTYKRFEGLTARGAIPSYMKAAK

With `CCc1ccc2c(c1)C1(NN=C(c3cccc4ccccc34)S1)C(=O)N2` (stereo not shown) [OGM1, 5-ethyl-5′-naphthalen-1-ylspiro[1H-indole-3,2′-3H-1,3,4-thiadiazole]-2-one], the remaining binding at 10 µM at NDR1 came out at 98%; on ASK1, 100%; at YANK2, 100%; in experiment [1], 84%; at HIPK4, 100%; at TESK1 it was 100%. Moreover, the remaining binding at 10 µM at EPHA1 is 92%; at EGFR(L861Q), 100%; on BMPR1B, 81%; in experiment [2], 74%; at PRKCH it was 100%; at CDKL5, 85%. Further, the remaining binding at 10 µM at CSNK1A1 came out at 75%; in experiment [3], 88%; at EPHB4 it was 100%; at HUNK, 83%; on MKK7, 99%; at ADCK3, 100%. In addition, the remaining binding at 10 µM on CSK was determined as 83%; at NDR2, 82%; at STK36 it was 100%. Besides, the Antagonism was −17.8 on D5 (10 uM), −16.2 at LPA5 (10 uM) and −7.5 at 5-HT1A (10 uM). The values for the Agonism at D5 (12.5 uM), at LPA5 (12.5 uM) and at 5-HT1A (12.5 uM) were −1.8, −0.1 and −0.8, respectively.

Regarding `CCc1ccc2c(c1)C1(NN=C(c3ccccc3)S1)C(=O)N2` (stereo not shown) [OGM2], the CC50 in experiment [4] lay in the range of 420 to 2700 nM.
